# Measured values reported in patent publication US20100120084A1, “REACTION MEDIUM FOR IDENTIFYING/DETECTING MICROORGANISMS” (Biomerieux, priority 2007, published 2010).
# Like-named read-outs stand apart in the source and are kept apart here.
# Legend:
# [1] = system: β-lactamase; experiment: β-lactamase resistance to heat degradation (residual amoxicillin by HPLC); conditions: for [Amoxicillin] (arbitrary units): amoxicillin 500 mg·L^−1, 5 min at 25° C.
# Method: β-Lactamase (Genzyme Biochemicals Ref. BELA-70-1431) in an amount equivalent to 0.375 U·mL^−1 was mixed with the cyclodextrin BCD A56 of the Protéosol® range (1 or 10 mM), at ambient temperature and in the dark, for 30 min. The mixture was then heated at 70° C. for 45 min. […] After incubation for 5 min at 25° C., the residual amoxicillin was analyzed by HPLC.
# On the basis of the above profiles, it was possible to quantify the concentration of amoxicillin and to link this value to the β-lactamase activity.
# [2] = Stability of cefoxitin in the presence of cyclodextrins at 65° C. (HPLC); format: physicochemical
# Method: 0.444 mM of cefoxitin (Sigma, Ref. C4786-5G) and 8.88 mM of cyclodextrin (ACD N0 or GCD NO or BCD R59 or BCD C15), i.e. in a molar ratio of 1:20, were dissolved with stirring for one hour at ambient temperature. The mixture was then brought to 65° C. for 90 min. The integrity of the cefoxitin was then analyzed by HPLC. The analysis of the samples and the quantification thereof were carried out on a Thermo Finnigan SpectraSYSTEM HPLC system equipped with a P1000XR pump, an AS3000 automatic injector, a UV1000 UV/visible detector, and a Merck Chromolith® Performance RP-18 endcapped column (100-4.6 mm) preceded by a Merck Chromolith® RP-18e guard column (5-4.6 mm).
# (§1) The mobile phases were prepared using HPLC-grade acetonitrile and water acidified with trifluoroacetic acid (100 μL/L). A methanol/water gradient of 0/100 to 100/0 was applied in 12 min. After stabilization for 2 min, the column is reequilibrated under the initial conditions. The elution speed is 1 mL/min, the temperature is 22° C. and the detection is carried out at 254 nm. The sample injection volume is 20 μL. The chromatographic data were processed using the Atlas software, version 2003.1 (Thermo Electron Corporation, UK).
# The optimization of protection was sought by varying the cefoxitin:cyclodextrin (BCD R59 and BCD C15) molar ratio from 1:1 to 1:216, the other conditions remaining unchanged. […] The improvement in stability was calculated relative to the control without cyclodextrin.
# [3] = format: physicochemical; conditions: for native molecule (cloxacillin) found after heating: 31 h at 75° C.
# Method: Cloxacillin (molecular mass 475.88) is an antibiotic of β-lactam type, used to inhibit the growth of certain bacterial species such as Enterobacter aerogenes or Escherichia coli. The cyclodextrins of the BioCydex library were incubated with cloxacillin in a 1:1 molar ratio (concentration=210.12 mM), at 20° C. for 72 h (shaking in the dark). The amount of residual cloxacillin was then analyzed by HPLC.
# The following tests were carried out in an aqueous medium and at high temperature (75° C.) in order to accelerate the rate of degradation.
# The complexes were prepared at ambient temperature with cloxacillin:cyclodextrin molar ratios of 1:16 and of 1:79. The solutions containing 0.63 mM, i.e. 300 mg·L^−1, of cloxacillin were incubated at 75° C. for 31 h. The analysis of the samples and the quantification thereof so as to evaluate the stability of the antibiotic were carried out on a Thermo Finnigan SpectraSYSTEM HPLC system equipped with a P1000XR pump, an AS3000 automatic injector, a UV1000 UV/visible detector, and a Merck Chromolith® Performance RP-18 endcapped column (100-4.6 mm) preceded by a Merck Chromolith® RP-18e guard column (5-4.6 mm).
# as §1, with “220” for “254”
# [4] = cloxacillin complexed with cyclodextrin
compound,measurement,setting,value
6^I-(3-aminopropylamino)-6^I-deoxycyclomaltoheptaose [BCD A56],protection of the β-lactamase against heat,"[1]; BCD A56 at 10 mM, reference: absence of cyclodextrin",excellent protection
same,interaction with the active site of the enzyme,[1]; β-lactamase + BCD A56,did not interact
same,[Amoxicillin] (arbitrary units),[1]; β-lactamase heated 70° C. 45 min + BCD A56 at 1 mM,4.3 arbitrary units
same,[Amoxicillin] (arbitrary units),[1]; β-lactamase heated 70° C. 45 min + BCD A56 at 10 mM,0.8 arbitrary units
"CO[C@@]1(NC(=O)Cc2cccs2)C(=O)N2C(C(=O)O)=C(COC(N)=O)CS[C@@H]21 [cefoxitin, reference compound]",stability of cefoxitin,"[2]; cefoxitin:cyclodextrin molar ratio 1:50, 90 min at 65° C.",47.5%
same,Cefoxitin stability/%,"[2]; no cyclodextrin, 0.444 mM cefoxitin, 65° C. for 90 min",38.5%
"Cc1onc(-c2ccccc2Cl)c1C(=O)N[C@@H]1C(=O)N2[C@@H]1SC(C)(C)[C@@H]2C(=O)O [cloxacillin, reference compound]",Cloxacillin stability (%),"[3]; 31 h, 0.63 mM",0.6%
same,native molecule (cloxacillin) found after heating,[3]; cloxacillin not associated with cyclodextrin,0%
"randomly 2,3,6-O-(2-hydroxypropyl)cyclomaltoheptaose [BCD R59]",native molecule (cloxacillin) found after heating,[3]; [4],40%
randomly 2-O-methyl-cyclomaltoheptaose [BCD C15],"protection of cloxacillin against heat degradation, comparison of cyclodextrins",[3],best protection
same,native molecule (cloxacillin) found after heating,[3]; [4],40%
same,complexed antibiotic (cefoxitin) less degraded than the molecule alone,[2],approximately 10%
same,"protection of cefoxitin, comparison of BCD R59 and BCD C15","[2]; molar ratios between 1:6 and 1:30, FIG. 2",most effective
